Measured values published in ChEMBL document CHEMBL3085736, “Identification of sulfonic acids as efficient ecto-5'-nucleotidase inhibitors” (Eur J Med Chem, 2013).
pIC50: −log10 of the molar value.

How the values were obtained:
NCI-H157 [1] = assay: Cytotoxicity against human NCI-H157 cells at 100 uM after 24 hrs by sulforhodamine B assay; assay type: functional
5'-nucleotidase [2] = biological target: T1, 5'-nucleotidase (Rattus norvegicus, UniProt P21588); assay: Inhibition of rat recombinant ecto-5'-nucleotidase expressed in african green monkey COS7 cells using adenosine monophosphate as substrate preincubated for 10 mins before substrate addition measured after 10 mins by capillary electrophoresis; assay type: cell-based, COS-7
T1 sequence (P21588 whole entry): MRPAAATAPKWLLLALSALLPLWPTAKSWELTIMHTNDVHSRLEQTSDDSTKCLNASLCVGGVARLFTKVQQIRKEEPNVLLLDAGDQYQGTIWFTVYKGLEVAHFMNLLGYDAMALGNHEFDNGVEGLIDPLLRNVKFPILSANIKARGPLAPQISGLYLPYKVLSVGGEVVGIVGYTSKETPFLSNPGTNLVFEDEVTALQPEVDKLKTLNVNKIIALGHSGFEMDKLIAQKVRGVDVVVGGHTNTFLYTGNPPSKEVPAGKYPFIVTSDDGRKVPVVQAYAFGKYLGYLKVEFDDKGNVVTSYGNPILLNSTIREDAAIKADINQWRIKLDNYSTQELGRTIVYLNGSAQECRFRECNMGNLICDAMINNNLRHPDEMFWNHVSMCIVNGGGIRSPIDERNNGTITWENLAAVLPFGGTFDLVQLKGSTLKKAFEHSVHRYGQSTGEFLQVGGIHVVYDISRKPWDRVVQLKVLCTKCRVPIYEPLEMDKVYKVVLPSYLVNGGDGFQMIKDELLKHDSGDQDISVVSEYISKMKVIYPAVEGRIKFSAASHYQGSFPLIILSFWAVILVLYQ

5'-nucleotidase [3] = biological target: T2, 5'-nucleotidase (Homo sapiens, UniProt P21589); assay: Inhibition of human recombinant ecto-5'-nucleotidase expressed in african green monkey COS7 cells using adenosine monophosphate as substrate preincubated for 10 mins before substrate addition measured after 10 mins by capillary electrophoresis; assay type: cell-based, COS-7
HCEC = assay: Cytotoxicity against HCEC after 24 hrs by sulforhodamine B assay; assay type: cell-based; conditions: human
NCI-H157 [4] = assay: Cytotoxicity against human NCI-H157 cells at 10 uM after 24 hrs by sulforhodamine B assay; assay type: functional
[5] = biological target: T3, 5'-nucleotidase (Rattus norvegicus) (UniProt P21588); assay: Inhibition of rat recombinant ecto-5'-nucleotidase expressed in african green monkey COS7 cells using adenosine monophosphate as substrate at 1 mM preincubated for 10 mins before substrate addition measured after 10 mins by capillary electrophoresis; assay type: cell-based; conditions: COS-7
T3 sequence (whole entry): T1 sequence (P21588 whole entry)

5'-nucleotidase [6] = biological target: T2, 5'-nucleotidase; assay: Inhibition of human recombinant ecto-5'-nucleotidase expressed in african green monkey COS7 cells using adenosine monophosphate as substrate at 1 mM preincubated for 10 mins before substrate addition measured after 10 mins by capillary electrophoresis; assay type: cell-based; conditions: COS-7

T2 sequence (P21589 whole entry): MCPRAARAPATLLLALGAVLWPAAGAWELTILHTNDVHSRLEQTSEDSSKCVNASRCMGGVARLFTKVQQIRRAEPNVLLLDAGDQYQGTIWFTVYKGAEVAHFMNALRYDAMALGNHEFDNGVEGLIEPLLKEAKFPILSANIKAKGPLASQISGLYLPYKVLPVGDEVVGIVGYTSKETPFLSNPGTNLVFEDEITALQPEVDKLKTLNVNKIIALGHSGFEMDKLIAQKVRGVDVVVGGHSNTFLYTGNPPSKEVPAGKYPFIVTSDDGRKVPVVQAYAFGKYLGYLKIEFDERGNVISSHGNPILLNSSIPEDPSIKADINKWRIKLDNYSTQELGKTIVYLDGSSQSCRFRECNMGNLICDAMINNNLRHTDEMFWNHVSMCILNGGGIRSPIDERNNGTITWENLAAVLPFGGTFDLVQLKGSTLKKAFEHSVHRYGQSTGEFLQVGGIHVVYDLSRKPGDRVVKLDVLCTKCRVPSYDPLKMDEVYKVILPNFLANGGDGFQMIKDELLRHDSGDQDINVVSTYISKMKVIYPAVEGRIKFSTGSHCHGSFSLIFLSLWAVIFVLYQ

SMILES	Activity (NCI-H157 [1]) [%]	pIC50 (5'-nucleotidase [2])	pIC50 (5'-nucleotidase [3])	Activity (HCEC)	Activity (NCI-H157 [4]) [%]	inhibition [5] [%]	inhibition (5'-nucleotidase [6]) [%]
CC[C@]1(O)C[C@H]2CN(CCc3c([nH]c4ccccc34)[C@@](C(=O)OC)(c3cc4c(cc3OC)N(C=O)[C@H]3[C@@](O)(C(=O)OC)[C@H](OC(C)=O)[C@]5(CC)C=CCN6CC[C@]43[C@@H]65)C2)C1 [VINCRISTINE]	47						
Cc1ccc2nc(-c3ccc(N)cc3)sc2c1S(=O)(=O)O	<40	4.73	4.87	Non-toxic			
Nc1cc(S(=O)(=O)O)cc2cc(S(=O)(=O)O)cc(O)c12	<40	4.12	4.66	Non-toxic			
CC1=NN(c2ccc(S(=O)(=O)O)cc2)C(=O)C1	72	4.35	5.21	Non-toxic	40		
Nc1c(S(=O)(=O)O)cc(Br)c2c1C(=O)c1ccccc1C2=O	<40			Non-toxic		27	4
NS(=O)(=O)O [SULFAMATE]	<40	4.11	4.38	Non-toxic			
NC(=O)Nc1ccc2cc(S(=O)(=O)O)cc(O)c2c1	<40		4.52	Non-toxic		40	
CC1=NN(c2ccccc2)C(=O)C1 [EDARAVONE]	70			Non-toxic	40	29	15
Nc1ccc2cc(S(=O)(=O)O)cc(O)c2c1	<40	4.98	5.88	Non-toxic			
Nc1ccc(Nc2ccc([N+](=O)[O-])cc2)c(S(=O)(=O)O)c1	42	4.14	4.32	Non-toxic			
Nc1cc(S(=O)(=O)[O-])cc2ccccc12.[Na+]	48			Non-toxic		20	35
Nc1c(O)cc(S(=O)(=O)O)c2cc([N+](=O)[O-])ccc12	<40	4.50	4.39	Non-toxic			
Nc1ccc(S(=O)(=O)O)cc1	<40	4.15	5.09	Non-toxic			
Nc1ccc(S(=O)(=O)O)c2ccccc12	<40			Non-toxic		28	43
